Test results published in US20250026748A1, “N-(5-SUBSTITUTED-[(1,3,4-THIADIAZOLYL) OR (THIAZOLYL)])(SUBSTITUTED)CARBOXAMIDE COMPOUNDS AND USE THEREOF FOR INHIBITING HUMAN POLYMERASE THETA” (Repare Therapeutics Inc., priority 2021, published 2025).

Target: PolQ ATPase enzyme (1-894) (Homo sapiens (Human), UniProt O75417)
Test: Polθ ATPase enzymatic assay (0.5 nM enzyme concentration), ADP-Glo
Format: biochemical
Conditions: average IC50; 0.5 nM PolQ ATPase enzyme (1-894)
Procedure: PolQ ATPase enzyme (1-894) at 0.5 nM is incubated with a 10-point concentration response of inhibitors for 15 min at rt in the following buffer: 50 mM Tris Cl pH 7.5, 10% glycerol, 5 mM DTT, 10 mM MgCl2, 0.1 mg/ml BSA. Following pre-incubation with inhibitors, DNA (Fork C) at 20 nM and ATP at 100 μM are added to start the reaction. Enzymatic reaction proceeds at rt for 180 min ATP consumption is measured using the ADP-Glo assay from Promega. Luminescence is read on the Envision and IC50 are determined using the variable slope 4-parameters equation.
Oligos are annealed by heating at 9500 for 5 min in the following buffer (10 mM Tris-HCl pH7.5, 50 mM NaCl, 1 mM EDTA) and cooled to rt. […]

Chain of PolQ ATPase enzyme (1-894) (O75417 1-894): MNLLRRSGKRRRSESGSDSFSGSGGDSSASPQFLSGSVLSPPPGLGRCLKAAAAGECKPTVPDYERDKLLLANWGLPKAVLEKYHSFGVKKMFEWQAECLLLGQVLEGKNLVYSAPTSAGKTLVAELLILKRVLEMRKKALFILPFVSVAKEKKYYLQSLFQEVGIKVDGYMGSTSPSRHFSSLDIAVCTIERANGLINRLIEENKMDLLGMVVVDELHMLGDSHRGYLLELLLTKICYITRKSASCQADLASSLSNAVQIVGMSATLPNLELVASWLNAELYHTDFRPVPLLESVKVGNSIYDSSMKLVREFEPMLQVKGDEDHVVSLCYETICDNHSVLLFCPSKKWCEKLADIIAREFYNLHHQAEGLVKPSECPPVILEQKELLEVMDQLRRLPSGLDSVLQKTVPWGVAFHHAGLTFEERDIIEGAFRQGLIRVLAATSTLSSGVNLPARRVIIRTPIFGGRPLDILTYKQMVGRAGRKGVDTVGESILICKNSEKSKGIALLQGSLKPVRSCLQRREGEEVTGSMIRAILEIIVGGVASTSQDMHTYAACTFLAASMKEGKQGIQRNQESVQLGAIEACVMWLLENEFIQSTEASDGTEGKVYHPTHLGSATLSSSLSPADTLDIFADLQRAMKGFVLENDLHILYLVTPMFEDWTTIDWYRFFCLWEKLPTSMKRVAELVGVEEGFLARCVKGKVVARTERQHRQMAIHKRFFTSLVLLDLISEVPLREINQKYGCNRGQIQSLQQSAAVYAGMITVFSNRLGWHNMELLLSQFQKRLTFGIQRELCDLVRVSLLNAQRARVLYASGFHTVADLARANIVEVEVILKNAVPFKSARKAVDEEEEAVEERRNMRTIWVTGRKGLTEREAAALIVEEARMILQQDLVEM

SMILES | IC50 [nM]
COc1cnc(Cl)cc1-c1cn(C)c(=O)cc1C(=O)Nc1nnc(C#CC2CC2)s1 [Compound 32, 2′-chloro-N-(5-(cyclopropylethynyl)-1,3,4-thiadiazol-2-yl)-5′-methoxy-1-methyl-6-oxo-1,6-dihydro-[3,4′-bipyridine]-4-carboxamide] | 0.66
CN(C)C(=O)Cn1cc(-c2cc(C(F)(F)F)ccc2Cl)c(C(=O)Nc2nnc(C#CC3CC3)s2)cc1=O [Compound 34, 5-(2-chloro-5-(trifluoromethyl)phenyl)-N-(5-(cyclopropylethynyl)-1,3,4-thiadiazol-2-yl)-1-(2-(dimethylamino)-2-oxoethyl)-2-oxo-1,2-dihydropyridine-4-carboxamide] | 0.29
COc1cnc(Cl)cc1-c1cc(CC(=O)N(C)C)ccc1C(=O)Nc1nnc(C#CC2CC2)s1 [Compound 35, 2-(2-chloro-5-methoxypyridin-4-yl)-N-(5-(cyclopropylethynyl)-1,3,4-thiadiazol-2-yl)-4-(2-(dimethylamino)-2-oxoethyl)benzamide] | < 0.25
COc1cnc(C(F)F)cc1-c1cn2ncnc2cc1C(=O)Nc1nnc(C#CC2CC2)s1 [Compound 36, N-(5-(cyclopropylethynyl)-1,3,4-thiadiazol-2-yl)-6-(2-(difluoromethyl)-5-methoxypyridin-4-yl)-[1,2,4]triazolo[1,5-a]pyridine-7-carboxamide] | 6.6
COc1cnc(C(F)F)cc1-c1cn(C)c(=O)cc1C(=O)Nc1nnc(C#CC2CC2)s1 [Compound 37, N-(5-(cyclopropylethynyl)-1,3,4-thiadiazol-2-yl)-2′-(difluoromethyl)-5′-methoxy-1-methyl-6-oxo-1,6-dihydro-[3,4′-bipyridine]-4-carboxamide] | 3.3
COc1cnc(Cl)cc1-c1cc(N2CCCC2=O)ccc1C(=O)Nc1nnc(C#CC2CC2)s1 [Compound 39] | 0.27
COc1cnc(Cl)cc1-c1cc(C#N)ccc1C(=O)Nc1nnc(C#CC2CC2)s1 [Compound 40] | < 0.25
COc1ccc(C(F)F)cc1-c1cn(C)c(=O)cc1C(=O)Nc1nnc(C#CC2CC23CC3)s1 (stereo not shown) [Compound 42] | 1.8
COc1cnc(Cl)cc1-c1cc(-c2cccnn2)ccc1C(=O)Nc1nnc(C#CC2CC2)s1 [Compound 45] | 2.2
COc1cnc(Cl)cc1-c1cc(-c2cc[nH]n2)ccc1C(=O)Nc1nnc(C#CC2CC2)s1 [Compound 46] | 0.2
O=C(Nc1nnc(C#CC2CC23CC3)s1)c1cc2ncnn2cc1-c1cc(Cl)ncc1OC(F)F (stereo not shown) [Compound 47] | 0.62
COc1cnc(C(F)F)cc1-c1cn2ncnc2cc1C(=O)Nc1nnc(C#CC2CC23CC3)s1 (stereo not shown) [Compound 48] | 2.5
COc1cnc(C(F)F)cc1-c1cn(C)c(=O)cc1C(=O)Nc1nnc(C#CC2CC23CC3)s1 (stereo not shown) [Compound 49] | 0.75
O=C(Nc1nnc(C#CC2CC2)s1)c1cc2ncnn2cc1-c1cc(Cl)ncc1OC(F)F [Compound 50] | 2.4
COc1ccc(C(F)(F)F)nc1-c1cn(CC(=O)N(C)C)c(=O)cc1C(=O)Nc1nnc(C#CC2CC2)s1 [Compound 51] | 2.1
CNC(=O)Cn1cc(-c2nc(C(F)(F)F)ccc2OC)c(C(=O)Nc2nnc(C#CC3CC3)s2)cc1=O [Compound 52] | 2.4
COc1cnc(Cl)cc1-c1cc(C#CC2(O)CCOCC2)ccc1C(=O)Nc1nnc(C#CC2CC2)s1 [Compound 53] | 0.31
COc1cnc(Cl)cc1-c1cc(C#CC2(O)COC2)ccc1C(=O)Nc1nnc(C#CC2CC2)s1 [Compound 54] | < 0.25
Cc1nnc(Cn2cc(-c3cc(C(F)(F)F)ccc3Cl)c(C(=O)Nc3nnc(C#CC4CC4)s3)cc2=O)o1 [Compound 61] | < 0.25
COc1cnc(Cl)cc1-c1cnccc1C(=O)Nc1nnc(C2CC2c2ccc(OC(F)F)cc2)s1 (stereo not shown) [Compound 62] | 0.36
COc1cnc(Cl)cc1-c1cn2ncnc2cc1C(=O)Nc1nnc(C#CC2CC23CC3)s1 (stereo not shown) [Compound 64] | 1.9
CN(C)C(=O)Cn1cc(-c2cc(F)ccc2Cl)c(C(=O)Nc2nnc(C#CC3CC3)s2)cc1=O [Compound 66] | 0.6
COc1cnc(Cl)cc1-c1cc(C#N)ncc1C(=O)Nc1nnc(C#CC2CC2)s1 [Compound 72] | 0.62
COc1cnc(Cl)cc1-c1cc(C(N)=O)ncc1C(=O)Nc1nnc(C#CC2CC2)s1 [Compound 73] | 0.42
Cn1cc(-c2cc(Cl)ncc2OC(F)F)c(C(=O)Nc2nnc(C#CC3CC3)s2)cc1=O [Compound 74] | 0.73
NC(=O)Cn1cc(-c2cc(Cl)ncc2OC(F)F)c(C(=O)Nc2nnc(C#CC3CC3)s2)cc1=O [Compound 76] | < 0.25
CNC(=O)Cn1cc(-c2cc(Cl)ncc2OC(F)F)c(C(=O)Nc2nnc(C#CC3CC3)s2)cc1=O [Compound 77] | < 0.25
COc1cnc(Cl)cc1-c1cn(CC(N)=O)c(=O)cc1C(=O)Nc1nnc(C#CC2CC23CC3)s1 (stereo not shown) [Compound 83] | < 0.25
COc1ccc(C(F)F)cc1-c1cn(CC(N)=O)c(=O)cc1C(=O)Nc1nnc(C#CC2CC2)s1 [Compound 87] | 0.36

Continued, values first:

IC50 [nM] | SMILES
0.26 | COc1ccc(C(F)(F)F)cc1-c1cnccc1C(=O)Nc1nnc(C#Cc2cc(C)[nH]n2)s1 [Compound 27, 3-[2-methoxy-5-(trifluoromethyl)phenyl]-N-[5-[2-(5-methyl-1H-pyrazol-3-yl)ethynyl]-1,3,4-thiadiazol-2-yl]pyridine-4-carboxamide]
0.36 | COc1cnc(Cl)cc1-c1cnccc1C(=O)Nc1nnc(C#Cc2cc(C)[nH]n2)s1 [Compound 28, 3-(2-chloro-5-methoxy-4-pyridyl)-N-[5-[2-(5-methyl-1H-pyrazol-3-yl)ethynyl]-1,3,4-thiadiazol-2-yl]pyridine-4-carboxamide]
0.6 | Cc1cc(C#Cc2nnc(NC(=O)c3ccncc3-c3cc(F)ccc3Cl)s2)n[nH]1 [Compound 29]
0.76 | COc1ccc(C(F)(F)F)cc1-c1cnccc1C(=O)Nc1nnc(C2CC2c2ccc(C#N)cc2)s1 (stereo not shown) [Compound 30]
0.63 | COc1cnc(C(F)F)cc1-c1cnccc1C(=O)Nc1nnc(C#CC2CC2)s1 [Compound 31, N-(5-(cyclopropylethynyl)-1,3,4-thiadiazol-2-yl)-2′-(difluoromethyl)-5′-methoxy-[3,4′-bipyridine]-4-carboxamide]
< 0.25 | COc1ccc(C(F)(F)F)cc1-c1cc(CC(=O)N(C)C)ncc1C(=O)Nc1nnc(C#CC2CC2)s1 [Compound 33, N-(5-(cyclopropylethynyl)-1,3,4-thiadiazol-2-yl)-6-(2-(dimethylamino)-2-oxoethyl)-4-(2-methoxy-5-(trifluoromethyl)phenyl)nicotinamide]
< 0.25 | COc1ccc(C(F)(F)F)cc1-c1cc(Cl)ncc1C(=O)Nc1nnc(C#CC2CC2)s1 [Compound 41]
< 0.25 | Cc1ccc(Cl)cc1-c1cnccc1C(=O)Nc1nnc(C#CC2CC2)s1 [Compound 43]
0.31 | O=C(Nc1nnc(C#CC2CC2)s1)c1ccncc1-c1cc(Cl)ncc1Cl [Compound 44]
< 0.25 | COc1ccc(C(F)F)cc1-c1cnccc1C(=O)Nc1nnc(C#CC2CC23CC3)s1 (stereo not shown) [Compound 55]
< 0.25 | COc1ccc(C(F)F)cc1-c1cnccc1C(=O)Nc1nnc(C#CC2CC2)s1 [Compound 56]
0.91 | COc1cnc(C(F)(F)F)cc1-c1cn(C)c(=O)cc1C(=O)Nc1nnc(C#CC2CC23CC3)s1 (stereo not shown) [Compound 58]
1.89 | COc1cnc(C(F)(F)F)cc1-c1cn(C)c(=O)cc1C(=O)Nc1nnc(C#CC2CC2)s1 [Compound 59]
1.1 | COc1ccc(C(F)(F)F)cc1-c1cn(C)c(=O)cc1C(=O)Nc1nnc(C#CC2CC23CC3)s1 (stereo not shown) [Compound 60]
2.2 | O=C(Nc1nnc(C#CC2CC2)s1)c1cc(=O)n(Cc2nccs2)cc1-c1cc(C(F)(F)F)ccc1Cl [Compound 65]
1.6 | COc1cnc(Cl)nc1-c1cnccc1C(=O)Nc1nnc(C#CC2CC2)s1 [Compound 68]
0.28 | COc1cnc(C(F)(F)F)cc1-c1cnccc1C(=O)Nc1nnc(C#CC2CC23CC3)s1 (stereo not shown) [Compound 69]
2.5 | COc1cnc(C)cc1-c1cnccc1C(=O)Nc1nnc(C#CC2CC2)s1 [Compound 70]
1.8 | COc1cnc(CF)cc1-c1cnccc1C(=O)Nc1nnc(C#CC2CC2)s1 [Compound 71]
< 0.25 | COc1ccc(C(F)(F)F)cc1-c1cn(CC(=O)N(C)C)c(=O)cc1C(=O)Nc1nnc(C#CC2CC2)s1 [Compound 75]
2.71 | COc1ccc(C(F)(F)F)cc1-c1cn(C2COC2)c(=O)cc1C(=O)Nc1nnc(C#Cc2cc(C)[nH]n2)s1 [Compound 78]
1.21 | COc1cnc(C2CC2)cc1-c1cnccc1C(=O)Nc1nnc(C#CC2CC2)s1 [Compound 79]
2.1 | COc1ccc(C(F)(F)F)cc1-c1cn(C)c(=O)cc1C(=O)Nc1nnc(C#CC2CC2)s1 [Compound 80]
< 0.25 | COc1ccc(C(F)(F)F)cc1-c1cn(CC(=O)N(C)C)c(=O)cc1C(=O)Nc1nnc(C#Cc2cc(C)[nH]n2)s1 [Compound 81]
< 0.25 | CNC(=O)Cn1cc(-c2cc(C(F)(F)F)ccc2OC)c(C(=O)Nc2nnc(C#Cc3cc(C)[nH]n3)s2)cc1=O [Compound 82]
1.1 | COc1cnc(C)cc1-c1cnccc1C(=O)Nc1nnc(C#Cc2cc(C)[nH]n2)s1 [Compound 85]
1.6 | COc1ccc(C(F)(F)F)cc1-c1cn2ncnc2cc1C(=O)Nc1nnc(C#Cc2cc(C)[nH]n2)s1 [Compound 86]
2.4 | COc1ncc(C(F)(F)F)cc1-c1cnccc1C(=O)Nc1nnc(C#Cc2cc(C)[nH]n2)s1 [Compound 88]
1.2 | CNC(=O)Cn1cc(-c2cc(C(F)(F)F)cnc2OC)c(C(=O)Nc2nnc(C#CC3CC3)s2)cc1=O [Compound 89]
